Measured values taken from patent US20110275703A1, “SUBSTITUTED SPIROKETAL DERIVATIVES AND USE THEREOF AS THERAPEUTIC DRUG FOR DIABETES” (CHUGAI SEIYAKU KABUSHIKI KAISHA, priority 2007, published 2011).

Tests used:
human SGLT1 = molecular target: T1, human SGLT1 (Homo sapiens, UniProt P13866); assay: Inhibitory activity against methyl-α-D-glucopyranoside uptake, CHO cells stably expressing human SGLT1; format: cell-based; settings: Table 2-2; read-out: hSGLT1 IC50 value
T1 construct: expressed in transfected cells; host or cells: CHO-K1
T1 sequence (P13866 1-664): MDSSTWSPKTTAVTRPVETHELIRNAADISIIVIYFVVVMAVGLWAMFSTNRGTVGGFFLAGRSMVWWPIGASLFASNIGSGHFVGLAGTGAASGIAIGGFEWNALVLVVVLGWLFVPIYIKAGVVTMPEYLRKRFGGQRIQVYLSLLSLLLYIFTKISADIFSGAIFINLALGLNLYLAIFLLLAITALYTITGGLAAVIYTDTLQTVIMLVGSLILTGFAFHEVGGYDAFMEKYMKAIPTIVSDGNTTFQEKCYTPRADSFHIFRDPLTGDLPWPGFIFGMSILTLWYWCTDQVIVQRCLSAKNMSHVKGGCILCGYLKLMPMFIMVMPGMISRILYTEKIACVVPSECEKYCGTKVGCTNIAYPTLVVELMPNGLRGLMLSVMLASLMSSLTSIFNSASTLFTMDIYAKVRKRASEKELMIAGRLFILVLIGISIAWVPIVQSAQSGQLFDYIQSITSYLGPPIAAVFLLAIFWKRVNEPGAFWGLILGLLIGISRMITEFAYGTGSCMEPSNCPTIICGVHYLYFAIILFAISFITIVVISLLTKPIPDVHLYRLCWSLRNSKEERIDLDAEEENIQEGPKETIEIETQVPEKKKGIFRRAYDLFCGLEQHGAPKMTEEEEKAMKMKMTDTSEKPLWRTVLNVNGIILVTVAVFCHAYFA
Description: Evaluation of inhibitory activity against methyl-α-D-glucopyranoside uptake of human Na^+-glucose cotransporter (SGLT1 and SGLT2)
1) Construction of Human SGLT1 Expression Vector
Human SGLT1 cDNA was amplified by PCR with a cDNA library derived from human small intestine (Clontech) as a template, synthetic DNA primers and KOD+ DNA Polymerase (Toyobo Co., Ltd., Japan). The amplified cDNA was inserted into pcRII-Topo vector by using a Topo TA Cloning Dual Promoter kit (Invitrogen). E. coli competent cells (Invitrogen, TOP10) were transformed with the plasmid vector, cultured in LB medium containing ampicillin (50 mg/L) to grow ampicillin-resistant clones. The plasmid vector containing human SGLT1 cDNA was purified from the clone in a standard manner (see Maniatis et al., Molecular Cloning). Human SGLT1 cDNA added restriction enzyme recognition sites (Eco RI at 5′-end, Hind III at 3′-end) was amplified by PCR with the plasmid vector as a template, synthetic DNA primers containing an additional restriction enzyme recognition site, and KOD+ DNA Polymerase. This amplified cDNA was digested with Eco RI and Hind III and ligated into expression vector pcDNA3.1(−) (Invitrogen) digested with Eco RI and Hind III by a Rapid DNA Ligation kit (Roche Diagonostics). E. coli competent cells (Invitrogen, DH5α) were transformed with the ligated expression vector and grown in ampicillin-containing LB medium. Human SGLT1 expression vector was purified from the ampicillin-resistant clone in a standard manner.
3) Establishment of Cell Lines Stably Expressing Human SGLT1 or Human SGLT2
The human SGLT1 expression vector or the human SGLT2 expression vector was digested with the restriction enzyme Pvu I and transfected into CHO-Kl cells with FuGENE (Roche Diagonostics). After the transfection, the cells were cultured at 37° C. in the presence of 5% CO2 for about 3 weeks in DMEM medium (Gibco) containing penicillin (50 U/mL, SIGMA), streptomycin (50 mg/L, SIGMA), geneticin (200 mg/L, Nacalai Tesque, Inc., Japan) and 20% fetal bovine serum to obtain geneticin-resistant clones. Among these clones, clones stably expressing human SGLT1 or human SGLT2 were selected by the evaluating the sodium-dependent uptake activity of sugar (methyl-α-D-glucopyranoside).
4) Evaluation of Inhibitory Activity Against methyl-α-D-glucopyranoside uptake
Cell lines stably expressing human SGLT1 or human SGLT2 CHO were seeded in 96-well culture plates at a density of 30000 to 40000 cells/well and cultured for 4 to 6 days. The medium in these plates was removed and replaced by 150 μL/well pretreatment buffer (i.e., a buffer containing 140 mM choline chloride, 2 mM potassium chloride, 1 mM calcium chloride, 1 mM magnesium chloride, 10 mM 2-[4-(2-hydroxyethyl)-1-piperazinyl]ethanesulfonic acid and tris(hydroxymethyl)aminomethane, pH 7.4), and the plates were incubated at 37° C. for 20 minutes. The pretreatment buffer in the plates was removed, replaced by 50 μL/well fresh pretreatment buffer, and the plates were incubated at 37° C. for 20 minutes. Methyl-α-D-(U—^14C)glucopyranoside (6.3 mL, Amersham Pharmacia Biotech, 200 mCi/L) was added to and mixed with 100 mL buffer (i.e., a buffer containing 140 mM sodium chloride, 2 mM potassium chloride, 1 mM calcium chloride, 1 mM magnesium chloride, 1 mM methyl-α-D-glucopyranoside, 10 mM [4-(2-hydroxyethyl)-1-piperazinyl]ethanesulfonic acid and tris(hydroxymethyl)aminomethane, pH 7.4), which was used as uptake buffer. Test compounds were dissolved into uptake buffer and these test compound solutions were used for evaluating inhibitory activity. Uptake buffer without a test compound was used as a control solution. Moreover, for use in measuring baseline uptake in the absence of sodium, sodium-free solution was prepared in the same manner to contain 140 mM choline chloride instead of sodium chloride. […]

db/db mice = assay: Study for glucose lowering effect in db/db mouse; format: in vivo; settings: oral, 0.3 mg/kg, relative to control group; for inhibition in vivo at 0.3 mg/kg: Mus musculus, 6 hours, Table 3-2, read-out: Percent reduction of blood glucose (%) 6 hours after administration; for Percent reduction of blood glucose (%) 24 hours after administration: Table 3-2
How it was run: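 Male db/db mice, 9–11 weeks old, were grouped (n=5) by body weight/blood glucose and dosed orally by gavage with compound in 0.5% CMC at 0.3 mg/10 mL or 3 mg/10 mL (10 mL/kg); controls got vehicle. Tail blood glucose was measured by hexokinase method before and serially after dosing, expressed as % reduction versus control.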

Row | Structure (SMILES) | IC50 (human SGLT1) | inhibition in vivo at 0.3 mg/kg (db/db mice) | Percent reduction of blood glucose (%) 24 hours after administration (db/db mice)
1 | CCc1ccc(Cc2cc3c(cc2C)CO[C@]32O[C@H](CO)[C@@H](O)[C@H](O)[C@H]2O)cc1 [Comparative Compound 1, 1,1-anhydro-1-C-[5-(4-ethylphenyl)methyl-2-(hydroxymethyl)-4-methylphenyl]-β-glucopyranose, reference compound] | 132 nM | – | –
2 | CCc1ccc(Cc2cc3c(cc2Cl)CO[C@]32O[C@H](CO)[C@@H](O)[C@H](O)[C@H]2O)cc1 [Example 1, (1S,3′R,4′S,5′S,6′R)-5-chloro-6-[(4-ethylphenyl)methyl]-3′,4′,5′,6′-tetrahydro-6′-(hydroxymethyl)-spiro[isobenzofuran-1(3H),2′-[2H]pyran]-3′,4′,5′-triol] | 201 nM | 42% | 32%
3 | CCOc1ccc(Cc2cc3c(cc2Cl)CO[C@]32O[C@H](CO)[C@@H](O)[C@H](O)[C@H]2O)cc1 [Example 5, (1S,3′R,4′S,5′S,6′R)-5-chloro-6-[(4-ethoxyphenyl)methyl]-3′,4′,5′,6′-tetrahydro-6′-(hydroxymethyl)-spiro[isobenzofuran-1(3H),2′-[2H]pyran]-3′,4′,5′-triol] | 425 nM | 52% | 25%
4 | OC[C@H]1O[C@]2(OCc3cc(Cl)c(Cc4ccc5ccccc5c4)cc32)[C@H](O)[C@@H](O)[C@@H]1O [Example 7, (1S,3′R,4′S,5′S,6′R)-5-chloro-3′,4′,5′,6′-tetrahydro-6′-(hydroxymethyl)-6-(2-naphthylmethyl)-spiro[isobenzofuran-1(3H),2′-[2H]pyran]-3′,4′,5′-triol] | 381 nM | 54% | 42%
5 | OC[C@H]1O[C@]2(OCc3cc(Cl)c(Cc4ccc(CCF)cc4)cc32)[C@H](O)[C@@H](O)[C@@H]1O [Example 8, (1S,3′R,4′S,5′S,6′R)-5-chloro-6-[(4-(2-fluoroethyl)phenyl)methyl]-3′,4′,5′,6′-tetrahydro-6′-(hydroxymethyl)-spiro[isobenzofuran-1(3H),2′-[2H]pyran]-3′,4′,5′-triol] | 355 nM | 48% | 27%
6 | CCCc1ccc(Cc2cc3c(cc2Cl)CO[C@]32O[C@H](CO)[C@@H](O)[C@H](O)[C@H]2O)cc1 [Example 9, (1S,3′R,4′S,5′S,6′R)-5-chloro-3′,4′,5′,6′-tetrahydro-6′-(hydroxymethyl)-6-[(4-propylphenyl)methyl]-spiro[isobenzofuran-1(3H),2′-[2H]pyran]-3′,4′,5′-triol] | 1360 nM | 48% | 28%
7 | CC(C)c1ccc(Cc2cc3c(cc2Cl)CO[C@]32O[C@H](CO)[C@@H](O)[C@H](O)[C@H]2O)cc1 [Example 15, (1S,3′R,4′S,5′S,6′R)-5-chloro-3′,4′,5′,6′-tetrahydro-6′-(hydroxymethyl)-6-[(4-isopropylphenyl)methyl]-spiro[isobenzofuran-1(3H),2′-[2H]pyran]-3′,4′,5′-triol] | 1010 nM | 50% | 27%
8 | Cc1cc2c(cc1Cc1ccc(C(C)C)cc1)[C@]1(OC2)O[C@H](CO)[C@@H](O)[C@H](O)[C@H]1O [Example 21, (1S,3′R,4′S,5′S,6′R)-3′,4′,5′,6′-tetrahydro-6′-(hydroxymethyl)-6-[(4-isopropylphenyl)methyl]-5-methyl-spiro[isobenzofuran-1(3H),2′-[2H]pyran]-3′,4′,5′-triol] | 682 nM | 51% | 33%
